# From ChEMBL document CHEMBL6078711, “Design, synthesis, and biological evaluation of steroidal indole derivatives as membrane-targeting antibacterial candidates” (Eur J Med Chem, 2025)
# Activity calls are given as the source filed them. No cut-off for these calls is given here.
# Tests used:
# Staphylococcus aureus [1] = experiment: Antibacterial activity against methicillin-resistant Staphylococcus aureus ATCC 43300 assessed as reduction in bacterial growth; type: functional
# Staphylococcus aureus [2] = experiment: Antibacterial activity against Staphylococcus aureus CGMCC1.8721 assessed as reduction in bacterial growth; type: functional
# Staphylococcus aureus [3] = experiment: Antibacterial activity against methicillin-resistant Staphylococcus aureus CGMCC 1.12409 assessed as reduction in bacterial growth; type: functional
# Staphylococcus aureus [4] = experiment: Antibacterial activity against Staphylococcus aureus CGMCC1.8721 assessed as reduction in bacterial growth in presence of phosphatidylglycerol; type: functional
# Staphylococcus aureus [5] = experiment: Antibacterial activity against methicillin-resistant Staphylococcus aureus ATCC 33591 assessed as reduction in bacterial growth; type: functional
# Staphylococcus aureus [6] = experiment: Antibacterial activity against Methicillin-resistant Staphylococcus aureus CGMCC1.8721 infected in mouse skin infection model assessed as reduction in bacterial load at 5 mg/kg, sc; type: functional; set-up: scale not given: the % may be the effect or the level left
# Staphylococcus aureus [7] = experiment: Antibacterial activity against Methicillin-resistant Staphylococcus aureus CGMCC1.8721 infected in mouse skin infection model assessed as reduction in bacterial clones at 5 mg/kg, sc; type: functional, organism-based
# Staphylococcus aureus [8] = experiment: Bactericidal activity against methicillin-resistant Staphylococcus aureus CGMCC 1.12409 assessed as reduction in bacterial growth; type: functional
# Staphylococcus aureus [9] = experiment: Bactericidal activity against Staphylococcus aureus CGMCC1.8721 assessed as reduction in bacterial growth; type: functional
# Staphylococcus aureus [10] = experiment: Bactericidal activity against methicillin-resistant Staphylococcus aureus ATCC 43300 assessed as reduction in bacterial growth; type: functional
# Staphylococcus aureus [11] = experiment: Bactericidal activity against methicillin-resistant Staphylococcus aureus ATCC 33591 assessed as reduction in bacterial growth; type: functional
SMILES,MIC (Staphylococcus aureus [1]) [µg/mL],MIC (Staphylococcus aureus [2]) [µg/mL],MIC (Staphylococcus aureus [3]) [µg/mL],MIC (Staphylococcus aureus [5]) [µg/mL],also measured
C[C@H](Cc1c[nH]c2ccc(CN3CCC(N4CCCC4)CC3)cc12)[C@H]1CC[C@H]2[C@@H]3CC[C@@H]4C[C@H](O)CC[C@]4(C)[C@H]3CC[C@]12C,16,16,–,–,–
CCCNCc1ccc2[nH]cc(C[C@@H](C)[C@H]3CC[C@H]4[C@@H]5CC[C@@H]6C[C@H](O)CC[C@]6(C)[C@H]5CC[C@]34C)c2c1,32,32,–,–,–
C[C@H](Cc1c[nH]c2ccc(CNCCCl)cc12)[C@H]1CC[C@H]2[C@@H]3CC[C@@H]4C[C@H](O)CC[C@]4(C)[C@H]3CC[C@]12C,–,32,–,–,–
C[C@H](Cc1c[nH]c2ccc(CO)cc12)[C@H]1CC[C@H]2[C@@H]3CC[C@@H]4C[C@H](O)CC[C@]4(C)[C@H]3CC[C@]12C,32,16,32,–,–
O=C(N[C@H](CO)[C@H](O)c1ccc([N+](=O)[O-])cc1)C(Cl)Cl,–,–,–,–,Activity (Staphylococcus aureus [4]): inactive
C[C@H](Cc1c[nH]c2ccc(CNCCN3CCN(C)CC3)cc12)[C@H]1CC[C@H]2[C@@H]3CC[C@@H]4C[C@H](O)CC[C@]4(C)[C@H]3CC[C@]12C,2,2,4,4,–
CCCCCCCCCC(=O)N[C@@H](Cc1c[nH]c2ccccc12)C(=O)N[C@@H](CC(N)=O)C(=O)N[C@@H](CC(=O)O)C(=O)N[C@@H]1C(=O)NCC(=O)N[C@@H](CCCN)C(=O)N[C@@H](CC(=O)O)C(=O)N[C@H](C)C(=O)N[C@@H](CC(=O)O)C(=O)NCC(=O)N[C@H](CO)C(=O)N[C@@H]([C@@H](C)CC(=O)O)C(=O)N[C@@H](CC(=O)c2ccccc2N)C(=O)O[C@@H]1C,–,–,–,–,Activity (Staphylococcus aureus [4]): Active
C[C@H](Cc1c[nH]c2ccc(CN3CCC(O)C3)cc12)[C@H]1CC[C@H]2[C@@H]3CC[C@@H]4C[C@H](O)CC[C@]4(C)[C@H]3CC[C@]12C (some centres undefined),16,8,–,–,–
CN[C@H](CC(C)C)C(=O)N[C@H]1C(=O)N[C@@H](CC(N)=O)C(=O)N[C@H]2C(=O)N[C@H]3C(=O)N[C@H](C(=O)N[C@H](C(=O)O)c4cc(O)cc(O)c4-c4cc3ccc4O)[C@H](O)c3ccc(c(Cl)c3)Oc3cc2cc(c3O[C@@H]2O[C@H](CO)[C@@H](O)[C@H](O)[C@H]2O[C@H]2C[C@](C)(N)[C@H](O)[C@H](C)O2)Oc2ccc(cc2Cl)[C@H]1O [VANCOMYCIN],–,–,–,–,Activity (Staphylococcus aureus [6]): 87%; Activity (Staphylococcus aureus [4]): inactive; Activity (Staphylococcus aureus [7]): Active
C[C@H](Cc1c[nH]c2ccc(CN3CC(O)C3)cc12)[C@H]1CC[C@H]2[C@@H]3CC[C@@H]4C[C@H](O)CC[C@]4(C)[C@H]3CC[C@]12C,8,8,16,16,–
C[C@H](Cc1c[nH]c2ccc(CN3CCNCC3)cc12)[C@H]1CC[C@H]2[C@@H]3CC[C@@H]4C[C@H](O)CC[C@]4(C)[C@H]3CC[C@]12C,16,8,16,16,–
C[C@H](Cc1c[nH]c2ccc(CN3CCSCC3)cc12)[C@H]1CC[C@H]2[C@@H]3CC[C@@H]4C[C@H](O)CC[C@]4(C)[C@H]3CC[C@]12C,16,8,16,16,–
COc1ccc2[nH]cc(C[C@@H](C)[C@H]3CC[C@H]4[C@@H]5CC[C@@H]6C[C@H](O)CC[C@]6(C)[C@H]5CC[C@]34C)c2c1,32,16,32,32,–
C[C@H](Cc1c[nH]c2ccc(CNCCO)cc12)[C@H]1CC[C@H]2[C@@H]3CC[C@@H]4C[C@H](O)CC[C@]4(C)[C@H]3CC[C@]12C,–,16,–,–,–
CCNCc1ccc2[nH]cc([C@H]3CC[C@H]4[C@@H]5CC[C@H]6C[C@@H](O)CC[C@]6(C)[C@H]5CC[C@]34C)c2c1,4,4,8,8,MBC (Staphylococcus aureus [8]): 16 µg/mL; MBC (Staphylococcus aureus [9]): 8 µg/mL; MBC (Staphylococcus aureus [10]): 8 µg/mL; MBC (Staphylococcus aureus [11]): 16 µg/mL
C[C@H](Cc1c[nH]c2ccccc12)[C@H]1CC[C@H]2[C@@H]3CC[C@@H]4C[C@H](O)CC[C@]4(C)[C@H]3CC[C@]12C,–,> 32,–,–,–
CC1CN(Cc2ccc3[nH]cc(C[C@@H](C)[C@H]4CC[C@H]5[C@@H]6CC[C@@H]7C[C@H](O)CC[C@]7(C)[C@H]6CC[C@]45C)c3c2)CC(C)N1 (some centres undefined),–,32,–,–,–
CC1(C)S[C@@H]2[C@H](NC(=O)[C@H](N)c3ccccc3)C(=O)N2[C@H]1C(=O)O,–,–,–,–,Activity (Staphylococcus aureus [4]): inactive
COc1ccc2[nH]cc([C@H]3CC[C@H]4[C@@H]5CCc6cc(O)ccc6[C@H]5CC[C@]34C)c2c1,32,16,–,–,–
C[C@H](Cc1c[nH]c2ccc(CNc3ccc(C(F)(F)F)cc3)cc12)[C@H]1CC[C@H]2[C@@H]3CC[C@@H]4C[C@H](O)CC[C@]4(C)[C@H]3CC[C@]12C,32,16,> 32,–,–
CCn1cc(C(=O)O)c(=O)c2cc(F)c(N3CCNCC3)cc21,–,–,–,–,Activity (Staphylococcus aureus [4]): inactive
C[C@H](Cc1c[nH]c2ccc(CN3CCOCC3)cc12)[C@H]1CC[C@H]2[C@@H]3CC[C@@H]4C[C@H](O)CC[C@]4(C)[C@H]3CC[C@]12C,32,16,–,–,–
CNCc1ccc2[nH]cc(C[C@@H](C)[C@H]3CC[C@H]4[C@@H]5CC[C@@H]6C[C@H](O)CC[C@]6(C)[C@H]5CC[C@]34C)c2c1,2,2,2,2,MBC (Staphylococcus aureus [8]): 4 µg/mL; MBC (Staphylococcus aureus [9]): 2 µg/mL; MBC (Staphylococcus aureus [10]): 4 µg/mL; MBC (Staphylococcus aureus [11]): 4 µg/mL
COc1ccc2[nH]cc(C[C@@H](C)[C@H]3CC[C@H]4[C@@H]5[C@H](O)C[C@@H]6C[C@H](O)CC[C@]6(C)[C@H]5CC[C@]34C)c2c1,32,16,32,32,–
COc1ccc2[nH]cc([C@H]3CC[C@H]4[C@@H]5CC[C@H]6C[C@@H](O)CC[C@]6(C)[C@H]5CC[C@]34C)c2c1,16,16,–,–,–
C[C@H](Cc1c[nH]c2ccc(CN3CCN(C)CC3)cc12)[C@H]1CC[C@H]2[C@@H]3CC[C@@H]4C[C@H](O)CC[C@]4(C)[C@H]3CC[C@]12C,–,16,–,–,–
CCNCc1ccc2[nH]cc([C@H]3CC[C@H]4[C@@H]5CCc6cc(O)ccc6[C@H]5CC[C@]34C)c2c1,1,1,4,4,MBC (Staphylococcus aureus [8]): 8 µg/mL; MBC (Staphylococcus aureus [9]): 2 µg/mL; MBC (Staphylococcus aureus [10]): 2 µg/mL; MBC (Staphylococcus aureus [11]): 8 µg/mL
COc1ccc2[nH]cc(C[C@@H](C)[C@H]3CC[C@H]4[C@@H]5[C@H](O)C[C@@H]6C[C@H](O)CC[C@]6(C)[C@H]5C[C@H](O)[C@]34C)c2c1,32,16,32,32,–
COc1ccc(NCc2ccc3[nH]cc(C[C@@H](C)[C@H]4CC[C@H]5[C@@H]6CC[C@@H]7C[C@H](O)CC[C@]7(C)[C@H]6CC[C@]45C)c3c2)cc1,16,16,–,–,–
